# Test system: NIH3T3
# Assay: Antiproliferative activity against mouse 3T3 cells expressing human CSF1R after 72 hrs by Celltiter assay
# Format: functional
# Settings: not given
row,Structure (SMILES),Activity [µM]
1,CCOc1cc2ncc(C(N)=O)c(Nc3ccc(Cl)c(Cl)c3)c2cc1N1CCN(C)CC1,0.06
2,CCOc1cc2ncc(C(N)=O)c(Nc3cccc(Cl)c3Cl)c2cc1N1CCCN(C)CC1,0.05
3,COCCOc1cc2ncc(C(N)=O)c(Nc3cccc(Cl)c3F)c2cc1N1CCN(C)CC1,0.1
4,CCOc1cc2ncc(C(N)=O)c(Nc3ccc(F)cc3F)c2cc1N1CCOCC1,0.48
5,CCOc1cc2ncc(C(N)=O)c(Nc3cccc(Cl)c3Cl)c2cc1N1CCN(C(=O)CO)CC1,0.09
6,CC(C)Oc1cc2ncc(C(N)=O)c(Nc3cccc(Cl)c3Cl)c2cc1N1CCN(C)CC1,0.05
7,CCOc1cc2ncc(C(N)=O)c(Nc3cccc(Cl)c3Cl)c2cc1N1CCN(CC)CC1,0.02
8,CCOc1cc2ncc(C(N)=O)c(Nc3ccc(F)cc3F)c2cc1N1CCCN(C2CC2)CC1,0.27
9,CCOc1cc2ncc(C(N)=O)c(Nc3ccc(F)c(Cl)c3)c2cc1N1CCN(C)CC1,0.13
10,CCOc1cc2ncc(C(N)=O)c(Nc3ccc(F)cc3F)c2cc1N1CCN(CC)CC1,0.17
11,COc1cc2ncc(C(N)=O)c(Nc3ccc(Cl)c(Cl)c3)c2cc1N1CCN(C)CC1,0.38
12,COCCOc1cc2ncc(C(N)=O)c(Nc3cc(C)ccc3F)c2cc1N1CCN(C)CC1,0.17
13,CCOc1cc2ncc(C(N)=O)c(Nc3cccc(Cl)c3F)c2cc1N1CCN(C)CC1,0.11
14,CCOc1cc2ncc(C(N)=O)c(Nc3ccc(F)cc3F)c2cc1N1CCN(C(C)C)CC1,0.17

# Test system: not listed separately
# Assay: Aqueous solubility of the compound
# Format: physicochemical
# Settings: buffer
row,solubility [µM],Structure (SMILES)
1,3,CCOc1cc2ncc(C(N)=O)c(Nc3ccc(Cl)c(Cl)c3)c2cc1N1CCN(C)CC1
2,130,CCOc1cc2ncc(C(N)=O)c(Nc3cccc(Cl)c3Cl)c2cc1N1CCCN(C)CC1
3,910,COCCOc1cc2ncc(C(N)=O)c(Nc3cccc(Cl)c3F)c2cc1N1CCN(C)CC1
4,64,CCOc1cc2ncc(C(N)=O)c(Nc3ccc(F)cc3F)c2cc1N1CCOCC1
5,29,CCOc1cc2ncc(C(N)=O)c(Nc3cccc(Cl)c3Cl)c2cc1N1CCN(C(=O)CO)CC1
6,200,CC(C)Oc1cc2ncc(C(N)=O)c(Nc3cccc(Cl)c3Cl)c2cc1N1CCN(C)CC1
7,11,CCOc1cc2ncc(C(N)=O)c(Nc3cccc(Cl)c3Cl)c2cc1N1CCN(CC)CC1
8,100,CCOc1cc2ncc(C(N)=O)c(Nc3ccc(F)cc3F)c2cc1N1CCCN(C2CC2)CC1
9,320,CCOc1cc2ncc(C(N)=O)c(Nc3ccc(F)cc3F)c2cc1N1CCN(CC)CC1
10,10,CCOc1cc2ncc(C(N)=O)c(Nc3cccc(Cl)c3F)c2cc1N1CCN(C)CC1
11,> 1000,CCOc1cc2ncc(C(N)=O)c(Nc3ccc(F)cc3F)c2cc1N1CCN(C(C)C)CC1

# Test system: not listed separately
# Assay: Plasma protein binding assessed as percentage unbound
# Settings: not given
row,fraction unbound,Structure (SMILES)
1,0.019,CCOc1cc2ncc(C(N)=O)c(Nc3cccc(Cl)c3Cl)c2cc1N1CCCN(C)CC1
2,0.39,COCCOc1cc2ncc(C(N)=O)c(Nc3cccc(Cl)c3F)c2cc1N1CCN(C)CC1
3,0.084,CCOc1cc2ncc(C(N)=O)c(Nc3ccc(F)cc3F)c2cc1N1CCOCC1
4,0.16,CCOc1cc2ncc(C(N)=O)c(Nc3cccc(Cl)c3Cl)c2cc1N1CCN(C(=O)CO)CC1
5,0.014,CC(C)Oc1cc2ncc(C(N)=O)c(Nc3cccc(Cl)c3Cl)c2cc1N1CCN(C)CC1
6,0.019,CCOc1cc2ncc(C(N)=O)c(Nc3cccc(Cl)c3Cl)c2cc1N1CCN(CC)CC1
7,0.022,CCOc1cc2ncc(C(N)=O)c(Nc3ccc(F)cc3F)c2cc1N1CCCN(C2CC2)CC1
8,0.034,CCOc1cc2ncc(C(N)=O)c(Nc3ccc(F)c(Cl)c3)c2cc1N1CCN(C)CC1
9,0.046,CCOc1cc2ncc(C(N)=O)c(Nc3ccc(F)cc3F)c2cc1N1CCN(CC)CC1
10,0.036,COc1cc2ncc(C(N)=O)c(Nc3ccc(Cl)c(Cl)c3)c2cc1N1CCN(C)CC1
11,0.16,COCCOc1cc2ncc(C(N)=O)c(Nc3cc(C)ccc3F)c2cc1N1CCN(C)CC1
12,0.071,CCOc1cc2ncc(C(N)=O)c(Nc3cccc(Cl)c3F)c2cc1N1CCN(C)CC1

# Test system: not listed separately
# Assay: Bioavailability in rat at 3 mg/kg, iv and 10 mg/kg, po
# Format: ADME, organism-based
# Settings: in vivo
row,bioavailability [%],Structure (SMILES)
1,42,CCOc1cc2ncc(C(N)=O)c(Nc3ccc(Cl)c(Cl)c3)c2cc1N1CCN(C)CC1
2,100,CCOc1cc2ncc(C(N)=O)c(Nc3cccc(Cl)c3Cl)c2cc1N1CCCN(C)CC1
3,25,CCOc1cc2ncc(C(N)=O)c(Nc3ccc(F)cc3F)c2cc1N1CCOCC1
4,6,CCOc1cc2ncc(C(N)=O)c(Nc3cccc(Cl)c3Cl)c2cc1N1CCN(C(=O)CO)CC1
5,19,CCOc1cc2ncc(C(N)=O)c(Nc3cccc(Cl)c3Cl)c2cc1N1CCN(CC)CC1
6,55,CCOc1cc2ncc(C(N)=O)c(Nc3ccc(F)c(Cl)c3)c2cc1N1CCN(C)CC1
7,46,CCOc1cc2ncc(C(N)=O)c(Nc3ccc(F)cc3F)c2cc1N1CCN(CC)CC1
8,45,COCCOc1cc2ncc(C(N)=O)c(Nc3cc(C)ccc3F)c2cc1N1CCN(C)CC1
9,54,CCOc1cc2ncc(C(N)=O)c(Nc3cccc(Cl)c3F)c2cc1N1CCN(C)CC1

# Test system: not listed separately
# Assay: Clearance in rat at 3 mg/kg, iv and 10 mg/kg, po
# Format: ADME, organism-based
# Settings: in vivo
row,clearance [mL/min/kg],Structure (SMILES)
1,47,CCOc1cc2ncc(C(N)=O)c(Nc3ccc(Cl)c(Cl)c3)c2cc1N1CCN(C)CC1
2,63,CCOc1cc2ncc(C(N)=O)c(Nc3cccc(Cl)c3Cl)c2cc1N1CCCN(C)CC1
3,36,CCOc1cc2ncc(C(N)=O)c(Nc3ccc(F)cc3F)c2cc1N1CCOCC1
4,72,CCOc1cc2ncc(C(N)=O)c(Nc3cccc(Cl)c3Cl)c2cc1N1CCN(C(=O)CO)CC1
5,86,CCOc1cc2ncc(C(N)=O)c(Nc3cccc(Cl)c3Cl)c2cc1N1CCN(CC)CC1
6,53,CCOc1cc2ncc(C(N)=O)c(Nc3ccc(F)c(Cl)c3)c2cc1N1CCN(C)CC1
7,19,CCOc1cc2ncc(C(N)=O)c(Nc3ccc(F)cc3F)c2cc1N1CCN(CC)CC1
8,50,COc1cc2ncc(C(N)=O)c(Nc3ccc(Cl)c(Cl)c3)c2cc1N1CCN(C)CC1
9,60,COCCOc1cc2ncc(C(N)=O)c(Nc3cc(C)ccc3F)c2cc1N1CCN(C)CC1
10,24,CCOc1cc2ncc(C(N)=O)c(Nc3cccc(Cl)c3F)c2cc1N1CCN(C)CC1

# Test system: not listed separately
# Assay: Volume of distribution at steady state in rat at 3 mg/kg, iv and 10 mg/kg, po
# Format: ADME, organism-based
# Settings: in vivo, read-out: Vdss
row,Vd [L/kg],Structure (SMILES)
1,3.7,CCOc1cc2ncc(C(N)=O)c(Nc3ccc(Cl)c(Cl)c3)c2cc1N1CCN(C)CC1
2,40,CCOc1cc2ncc(C(N)=O)c(Nc3cccc(Cl)c3Cl)c2cc1N1CCCN(C)CC1
3,1.1,CCOc1cc2ncc(C(N)=O)c(Nc3ccc(F)cc3F)c2cc1N1CCOCC1
4,2.2,CCOc1cc2ncc(C(N)=O)c(Nc3cccc(Cl)c3Cl)c2cc1N1CCN(C(=O)CO)CC1
5,6.8,CCOc1cc2ncc(C(N)=O)c(Nc3cccc(Cl)c3Cl)c2cc1N1CCN(CC)CC1
6,9.3,CCOc1cc2ncc(C(N)=O)c(Nc3ccc(F)c(Cl)c3)c2cc1N1CCN(C)CC1
7,3.6,CCOc1cc2ncc(C(N)=O)c(Nc3ccc(F)cc3F)c2cc1N1CCN(CC)CC1
8,3.8,COc1cc2ncc(C(N)=O)c(Nc3ccc(Cl)c(Cl)c3)c2cc1N1CCN(C)CC1
9,4.7,COCCOc1cc2ncc(C(N)=O)c(Nc3cc(C)ccc3F)c2cc1N1CCN(C)CC1
10,1.9,CCOc1cc2ncc(C(N)=O)c(Nc3cccc(Cl)c3F)c2cc1N1CCN(C)CC1

# Test system: not listed separately
# Assay: Half life in rat at 3 mg/kg, iv and 10 mg/kg, po
# Format: ADME, organism-based
# Settings: in vivo
row,half-life [min],Structure (SMILES)
1,72,CCOc1cc2ncc(C(N)=O)c(Nc3ccc(Cl)c(Cl)c3)c2cc1N1CCN(C)CC1
2,516,CCOc1cc2ncc(C(N)=O)c(Nc3cccc(Cl)c3Cl)c2cc1N1CCCN(C)CC1
3,36,CCOc1cc2ncc(C(N)=O)c(Nc3ccc(F)cc3F)c2cc1N1CCOCC1
4,39.6,CCOc1cc2ncc(C(N)=O)c(Nc3cccc(Cl)c3Cl)c2cc1N1CCN(C(=O)CO)CC1
5,72,CCOc1cc2ncc(C(N)=O)c(Nc3cccc(Cl)c3Cl)c2cc1N1CCN(CC)CC1
6,132,CCOc1cc2ncc(C(N)=O)c(Nc3ccc(F)c(Cl)c3)c2cc1N1CCN(C)CC1
7,138,CCOc1cc2ncc(C(N)=O)c(Nc3ccc(F)cc3F)c2cc1N1CCN(CC)CC1
8,72,COc1cc2ncc(C(N)=O)c(Nc3ccc(Cl)c(Cl)c3)c2cc1N1CCN(C)CC1
9,252,COCCOc1cc2ncc(C(N)=O)c(Nc3cc(C)ccc3F)c2cc1N1CCN(C)CC1
10,66,CCOc1cc2ncc(C(N)=O)c(Nc3cccc(Cl)c3F)c2cc1N1CCN(C)CC1

# Test system: Mus musculus
# Assay: Inhibition of phosphorylated CSF1R level in 3T3/CSF1R mutant cells xenografted nude mouse at 25 mg/kg, po after 2 hrs by ELISA
# Format: functional
# Settings: not given
row,Structure (SMILES),inhibition in vivo at 25 mg/kg [%]
1,CCOc1cc2ncc(C(N)=O)c(Nc3ccc(Cl)c(Cl)c3)c2cc1N1CCN(C)CC1,80
2,CCOc1cc2ncc(C(N)=O)c(Nc3cccc(Cl)c3Cl)c2cc1N1CCCN(C)CC1,90
3,COCCOc1cc2ncc(C(N)=O)c(Nc3cccc(Cl)c3F)c2cc1N1CCN(C)CC1,80
4,CC(C)Oc1cc2ncc(C(N)=O)c(Nc3cccc(Cl)c3Cl)c2cc1N1CCN(C)CC1,70
5,CCOc1cc2ncc(C(N)=O)c(Nc3cccc(Cl)c3Cl)c2cc1N1CCN(CC)CC1,95
6,CCOc1cc2ncc(C(N)=O)c(Nc3ccc(F)c(Cl)c3)c2cc1N1CCN(C)CC1,70
7,COCCOc1cc2ncc(C(N)=O)c(Nc3cc(C)ccc3F)c2cc1N1CCN(C)CC1,85
8,CCOc1cc2ncc(C(N)=O)c(Nc3cccc(Cl)c3F)c2cc1N1CCN(C)CC1,100
9,CCOc1cc2ncc(C(N)=O)c(Nc3ccc(F)cc3F)c2cc1N1CCN(C(C)C)CC1,70

# Test system: Mus musculus
# Assay: Inhibition of phosphorylated CSF1R level in 3T3/CSF1R mutant cells xenografted nude mouse at 25 mg/kg, po after 6 hrs by ELISA
# Format: functional
# Settings: not given
row,Structure (SMILES),inhibition in vivo at 25 mg/kg [%]
1,CCOc1cc2ncc(C(N)=O)c(Nc3ccc(Cl)c(Cl)c3)c2cc1N1CCN(C)CC1,40
2,CCOc1cc2ncc(C(N)=O)c(Nc3cccc(Cl)c3Cl)c2cc1N1CCCN(C)CC1,95
3,COCCOc1cc2ncc(C(N)=O)c(Nc3cccc(Cl)c3F)c2cc1N1CCN(C)CC1,75
4,CC(C)Oc1cc2ncc(C(N)=O)c(Nc3cccc(Cl)c3Cl)c2cc1N1CCN(C)CC1,35
5,CCOc1cc2ncc(C(N)=O)c(Nc3cccc(Cl)c3Cl)c2cc1N1CCN(CC)CC1,75
6,CCOc1cc2ncc(C(N)=O)c(Nc3ccc(F)c(Cl)c3)c2cc1N1CCN(C)CC1,55
7,COCCOc1cc2ncc(C(N)=O)c(Nc3cc(C)ccc3F)c2cc1N1CCN(C)CC1,70
8,CCOc1cc2ncc(C(N)=O)c(Nc3cccc(Cl)c3F)c2cc1N1CCN(C)CC1,90
9,CCOc1cc2ncc(C(N)=O)c(Nc3ccc(F)cc3F)c2cc1N1CCN(C(C)C)CC1,50

# Source: ChEMBL document CHEMBL1143306, “3-amido-4-anilinoquinolines as CSF-1R kinase inhibitors 2: Optimization of the PK profile” (Bioorg Med Chem Lett, 2009)
